# Data taken from patent publication US9113629B2, “4-amino-6-(4-substituted-phenyl)-picolinates and 6-amino-2-(4-substituted-phenyl)-pyrimidine-4-carboxylates and their use as herbicides” (DOW AGROSCIENCES LLC, priority 2013, dated 2015).
# Where two headings read alike, the source gives them in different places.
# Experiments:
# [1] = test system: Key Broadleaf Weed and Crop Species; experiment: Post-emergent Test II herbicidal activity (Table 5); type: in vivo; conditions: post-emergence, 336 h, 14 days after application; for pest or weed control at 70 g/ha: application rate 70 g ai/ha; for pest or weed control at 140 g/ha: application rate 140 g ai/ha
# Method in brief: (§1)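 Greenhouse-grown plants at first or second true leaf stage were sprayed post-emergence with compound in acetone/DMSO-based aqueous spray containing crop oil concentrate and surfactant, at 187 L/ha, highest rate plus ½× to 1/16× dilutions. After 14 d, injury was scored visually versus untreated plants, 0 (none) to 100% (complete kill).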
# [2] = test system: Key Grass and Sedge Weeds as well as Grass Crops; experiment: Post-emergent Test II herbicidal activity (Table 6); type: in vivo; conditions: post-emergence, 336 h; for pest or weed control at 70 g/ha: 70 g ai/ha; for pest or weed control at 140 g/ha: 140 g ai/ha
# Method in brief: as §1
# [3] = ABUTH: velvetleaf (Abutilon theophrasti), read-out: Visual Growth Reduction (%) 14 Days After Application, ABUTH
# [4] = AMARE: redroot pigweed (Amaranthus retroflexus), read-out: Visual Growth Reduction (%) 14 Days After Application, AMARE
# [5] = BRSNN: oilseed-rape, canola (Brassica napus), read-out: Visual Growth Reduction (%) 14 Days After Application, BRSNN
# [6] = CHEAL: lambsquarters (Chenopodium album), read-out: Visual Growth Reduction (%) 14 Days After Application, CHEAL
# [7] = EPHHL: wild poinsettia (Euphorbia heterophylla), read-out: Visual Growth Reduction (%) 14 Days After Application, EPHHL
# [8] = HELAN: sunflower (Helianthus annuus), read-out: Visual Growth Reduction (%) 14 Days After Application, HELAN
# [9] = VIOTR: wild pansy (Viola tricolor), read-out: Visual Growth Reduction (%) 14 Days After Application, VIOTR
# [10] = CYPES: yellow nutsedge (Cyperus esculentus), read-out: Visual Growth Reduction (%) 14 Days After Application, CYPES
# [11] = DIGSA: crabgrass (Digitaria sanguinalis), read-out: Visual Growth Reduction (%) 14 Days After Application, DIGSA
# [12] = ECHCG: barnyardgrass (Echinochloa crus-galli), read-out: Visual Growth Reduction (%) 14 Days After Application, ECHCG
# [13] = ORYSA: rice (Oryza sativa), crop, read-out: Visual Growth Reduction (%) 14 Days After Application, ORYSA
# [14] = SETFA: giant foxtail (Setaria faberi), read-out: Visual Growth Reduction (%) 14 Days After Application, SETFA
# [15] = SORVU: grain sorghum (Sorghum vulgare), read-out: Visual Growth Reduction (%) 14 Days After Application, SORVU
# [16] = TRZSS (wheat, Triticum aestivum), crop, read-out: Visual Growth Reduction (%) 14 Days After Application, TRZSS
# [17] = ZEAMX: maize, corn (Zea mays), crop, read-out: Visual Growth Reduction (%) 14 Days After Application, ZEAMX
structure (smiles),measurement,setting,value
"Nc1c(F)c(-c2ccc([N+](=O)[O-])cc2)nc(C(=O)O)c1Cl [Compound 31, 4-amino-3-chloro-5-fluoro-6-(4-nitrophenyl)picolinic acid]",pest or weed control at 70 g/ha,[1]; [3],0 to 29%
same,pest or weed control at 140 g/ha,[1]; [3],0 to 29%
same,pest or weed control at 70 g/ha,[1]; [4],95 to 100%
same,pest or weed control at 140 g/ha,[1]; [4],95 to 100%
same,pest or weed control at 70 g/ha,[1]; [5],30 to 44%
same,pest or weed control at 140 g/ha,[1]; [5],45 to 59%
same,pest or weed control at 70 g/ha,[1]; [6],60 to 74%
same,pest or weed control at 140 g/ha,[1]; [6],85 to 94%
same,pest or weed control at 70 g/ha,[1]; [7],0 to 29%
same,pest or weed control at 140 g/ha,[1]; [7],0 to 29%
same,pest or weed control at 70 g/ha,[1]; [8],95 to 100%
same,pest or weed control at 140 g/ha,[1]; [8],95 to 100%
same,pest or weed control at 70 g/ha,[1]; [9],0 to 29%
same,pest or weed control at 140 g/ha,[1]; [9],0 to 29%
same,pest or weed control at 70 g/ha,[2]; [10],0 to 29%
same,pest or weed control at 140 g/ha,[2]; [10],0 to 29%
same,pest or weed control at 70 g/ha,[2]; [11],60 to 74%
same,pest or weed control at 140 g/ha,[2]; [11],60 to 74%
same,pest or weed control at 70 g/ha,[2]; [12],75 to 84%
same,pest or weed control at 140 g/ha,[2]; [12],85 to 94%
same,pest or weed control at 70 g/ha,[2]; [13],0 to 29%
same,pest or weed control at 140 g/ha,[2]; [13],0 to 29%
same,pest or weed control at 70 g/ha,[2]; [14],0 to 29%
same,pest or weed control at 140 g/ha,[2]; [14],0 to 29%
same,pest or weed control at 70 g/ha,[2]; [15],0 to 29%
same,pest or weed control at 140 g/ha,[2]; [15],0 to 29%
same,pest or weed control at 70 g/ha,[2]; [16],0 to 29%
same,pest or weed control at 140 g/ha,[2]; [16],0 to 29%
same,pest or weed control at 70 g/ha,[2]; [17],0 to 29%
same,pest or weed control at 140 g/ha,[2]; [17],0 to 29%
same,melting point,,180 to 181 °C
